Structures can show the parent of a compound that is named as a salt. Where two headings read alike, the source gives them in different places.
Assays:
[1] = anesthetic requirement (MAC) for cyclopropane, tail-clamp technique; format: in vivo, Sprague-Dawley rats
Method: (§1) The effect on anesthetic requirements and PaCO2 of combined doses of nalbuphine hydrochloride and morphine sulfate was evaluated in 18 Sprague-Dawley rats (200-350 gms). Anesthetic requirements for cyclopropane anesthetic of each rat was determined using a tail-clamp technique (Munson et al., The Effect of Acute Hypothyroidism and Hyperthyoidism on Cyclopropane Requirements (MAC) in Rats, Anesthesiology 1968; 29:1094-1098). After induction of anesthesia with cyclopropane, the femoral artery and vein were exposed and catheterized with PE50 tubing. Anesthetic requirement as measured by minimal alveolar concentration (MAC) was determined and thereafter nalbuphine hydrochloride was administered intravenously. Upon completion of control measurements, a bolus dose of 0.04 mg/kg of nalbuphine hydrochloride was followed with a constant infusion of 0.1 mg/kg/min. After 45 minutes of continuous infusion, MAC was redetermined and arterial blood sampling repeated. The rat then received either 2, 4 or 8 mg/kg subcutaneously of morphine sulfate and after 30 minutes MAC and arterial blood gas (ABG) values (PaO2, PaCO2, pH, HCO3) redetermined.
The effect of morphine sulfate alone on anesthetic requirement and respiration was evaluated in a separate group of five Sprague-Dawley rats. After baseline measurements of anesthetic requirement (MAC) and ABG values, 2 mg/kg of morphine sulfate was given subcutaneously and after 30 minutes, repeat measurements of anesthetic requirements and blood gases were carried out.
Statistical evaluation was carried out using analysis of variance comparing the groups of animals at different infusion rates of nalbuphine hydrochloride, and for the animals receiving the combined morphine sulfatenalbuphine hydrochloride doses.

[2] = Method: as §1
The effect of morphine sulfate alone on anesthetic requirement and respiration was evaluated in a separate group of five Sprague-Dawley rats. […]

[3] = from a previous study, cited from earlier work
[4] = mouse antiphenylquinone writhing test; conditions: for % mice blocked: 0:1 (morphine SO4 only)
[5] = human, in vivo
Method: The nalbuphine was administered parenterally as each patient was coming out of the anesthesia. […] The respiratory effect of the nalbuphine was established by measurement of arterial PaCO2 using a blood gas analyzer well known in respiratory therapy. Normal PaCO2 is in the range of 35-42 mmHg. All arterial samples were obtained on an inspired oxygen concentration of 100%.

Structure (SMILES) | MAC Reduction % (Mean ± SEM) ([1]; morphine SO4 2 mg/kg sc, 30 min) [%] | MAC Reduction % (Mean ± SEM) ([1]; morphine SO4 2 mg/kg sc, 30 min, listed as morphine) [%] | mean PaCO2 compared with comparable MAC reduction dose of nalbuphine ([2]; morphine 2 mg/kg) | MAC Reduction % (Mean ± SEM) ([3]; morphine SO4 2 mg/kg sc) [%] | MAC Reduction % (Mean ± SEM) ([3]; morphine SO4 4 mg/kg sc) [%] | MAC Reduction % (Mean ± SEM) ([3]; morphine SO4 8 mg/kg sc) [%] | % mice blocked ([4]; s.c., 10 min, 0.373 mg/kg) [%] | % mice blocked ([4]; s.c., 10 min, 0.745 mg/kg) [%] | % mice blocked ([4]; s.c., 10 min, 1.49 mg/kg) [%] | % mice blocked ([4]; s.c., 10 min, 2.98 mg/kg) [%] | ED50 at 10 min., Morphine SO4 ([4]; s.c., 10 min, morphine SO4 dose (alone or as component of combination), N = 30 mice/dose, 95% conf. limits printed on following lines) [mg/kg] | MAC Reduction % (Mean ± SEM) ([1]; rat, in vivo) [%] | duration of analgesia [5] [h] | emergence from anesthesia [5] | hypoxia and shunt [5] | pH after nalbuphine [5] | respiratory acidosis present before nalbuphine [5] | respiratory depression resulting from the narcotic [5] | PaCO2 (Mean ± SEM) ([2]; rat, in vivo) [mmHg] | ED50 at 10 min., Nalbuphine HCl ([4]; mouse, in vivo, sc) [mg/kg]
CN1CC[C@]23c4c5ccc(O)c4O[C@H]2[C@@H](O)C=C[C@H]3[C@H]1C5 [Morphine SO4] | 22 ± 0.55 | 22 | significantly higher | 21.80 ± 1.48 | 32.63 ± 0.98 | 54.87 ± 1.94 | 17 | 37 | 83 | 100 | 0.832 | – | – | – | – | – | – | – | – | –
Oc1ccc2c3c1O[C@H]1[C@@H](O)CC[C@@]4(O)[C@@H](C2)N(CC2CCC2)CC[C@]314 [Nalbuphine HCl, (-)-17-(cyclobutylmethyl)-4,5α-epoxymorphinan-3,6α, 14-triol] | – | – | – | – | – | – | – | – | – | – | – | 21.62 ± 0.69 | 8 to 12 | smooth, rapid | No patient was hypoxic, nor was there any significant shunt present | 7.35±0.6 | completely reversed | reversed in all cases | 48.31 ± 1.07 | 2.17
